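Each compound was tested at five concentrations against cells in 96-well plates for 48 hours. GI50 is the concentration that inhibits growth by half. The concentration for full growth arrest is given as TGI.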
Legend:
Assay in all cases: DTP human tumour cell line panel, 48 h
786-0 renal = tested on: 786-0 renal
A498 renal = tested on: A498 renal
A549 NSCLC = tested on: A549 NSCLC
ACHN renal = tested on: ACHN renal
BT-549 breast = tested on: BT-549 breast
CAKI-1 renal = tested on: CAKI-1 renal
COLO 205 colon = tested on: COLO 205 colon
DU-145 prostate = tested on: DU-145 prostate
EKVX NSCLC = tested on: EKVX NSCLC
HCC-2998 colon = tested on: HCC-2998 colon
HCT-116 colon = tested on: HCT-116 colon
HCT-15 colon = tested on: HCT-15 colon
HL-60(TB) leukemia = tested on: HL-60(TB) leukemia
HOP-62 NSCLC = tested on: HOP-62 NSCLC
HOP-92 NSCLC = tested on: HOP-92 NSCLC
HS 578T breast = tested on: HS 578T breast
HT29 colon = tested on: HT29 colon
KM12 colon = tested on: KM12 colon
M14 melanoma = tested on: M14 melanoma
MALME-3M melanoma = tested on: MALME-3M melanoma
MCF7 breast = tested on: MCF7 breast
MDA-MB-231 breast = tested on: MDA-MB-231 breast
MDA-MB-435 = tested on: MDA-MB-435
MOLT-4 leukemia = tested on: MOLT-4 leukemia
NCI-H226 lung = tested on: NCI-H226 lung
NCI-H23 lung = tested on: NCI-H23 lung
NCI-H460 lung = tested on: NCI-H460 lung
NCI-H522 lung = tested on: NCI-H522 lung
NCI/ADR-RES ovarian = tested on: NCI/ADR-RES ovarian
OVCAR-3 ovarian = tested on: OVCAR-3 ovarian
OVCAR-4 ovarian = tested on: OVCAR-4 ovarian
OVCAR-5 ovarian = tested on: OVCAR-5 ovarian
OVCAR-8 ovarian = tested on: OVCAR-8 ovarian
PC-3 prostate = tested on: PC-3 prostate
RPMI-8226 leukemia = tested on: RPMI-8226 leukemia
RXF 393 renal = tested on: RXF 393 renal
SF-268 CNS = tested on: SF-268 CNS
SF-295 CNS = tested on: SF-295 CNS
SF-539 CNS = tested on: SF-539 CNS
SK-MEL-2 melanoma = tested on: SK-MEL-2 melanoma
SK-MEL-5 melanoma = tested on: SK-MEL-5 melanoma
SK-OV-3 ovarian = tested on: SK-OV-3 ovarian
SNB-19 CNS = tested on: SNB-19 CNS
SNB-75 CNS = tested on: SNB-75 CNS
SR leukemia = tested on: SR leukemia
SW-620 colon = tested on: SW-620 colon
T-47D breast = tested on: T-47D breast
TK-10 renal = tested on: TK-10 renal
U251 CNS = tested on: U251 CNS
UACC-257 melanoma = tested on: UACC-257 melanoma
UACC-62 melanoma = tested on: UACC-62 melanoma
UO-31 renal = tested on: UO-31 renal
CCRF-CEM leukemia = tested on: CCRF-CEM leukemia
IGROV1 ovarian = tested on: IGROV1 ovarian
K-562 leukemia = tested on: K-562 leukemia
LOX IMVI melanoma = tested on: LOX IMVI melanoma
SK-MEL-28 melanoma = tested on: SK-MEL-28 melanoma
SN12C renal = tested on: SN12C renal

In the case of `N[C@]1(C(=O)O)C[C@@H]2C(Br)=NO[C@@H]2C1`, the TGI (786-0 renal) is reported as greater than 100 µM, the TGI (A498 renal) is reported as greater than 100 µM and the TGI (A549 NSCLC) is reported as greater than 100 µM. For the same compound, the TGI (ACHN renal) was greater than 100 µM, the TGI (BT-549 breast) was greater than 100 µM and the TGI (CAKI-1 renal) was greater than 100 µM. The TGI (COLO 205 colon) was greater than 100 µM, the TGI (DU-145 prostate) was greater than 100 µM and the TGI (EKVX NSCLC) was greater than 100 µM. The TGI (HCC-2998 colon) was greater than 100 µM, the TGI (HCT-116 colon) was greater than 100 µM and the TGI (HCT-15 colon) was greater than 100 µM. It also gave a TGI (HL-60(TB) leukemia) greater than 100 µM, a TGI (HOP-62 NSCLC) greater than 100 µM and a TGI (HOP-92 NSCLC) greater than 100 µM. It also gave a TGI (HS 578T breast) greater than 100 µM, a TGI (HT29 colon) greater than 100 µM and a TGI (KM12 colon) greater than 100 µM. For the same compound, the TGI (M14 melanoma) was greater than 100 µM, the TGI (MALME-3M melanoma) was greater than 100 µM and the TGI (MCF7 breast) was greater than 100 µM. For the same compound, the TGI (MDA-MB-231 breast) was greater than 100 µM, the TGI (MDA-MB-435) was greater than 100 µM and the TGI (MOLT-4 leukemia) was greater than 100 µM. It also gave a TGI (NCI-H226 lung) greater than 100 µM, a TGI (NCI-H23 lung) greater than 100 µM and a TGI (NCI-H460 lung) greater than 100 µM. The TGI (NCI-H522 lung) was greater than 100 µM, the TGI (NCI/ADR-RES ovarian) was greater than 100 µM and the TGI (OVCAR-3 ovarian) was greater than 100 µM. The TGI (OVCAR-4 ovarian) was greater than 100 µM, the TGI (OVCAR-5 ovarian) was greater than 100 µM and the TGI (OVCAR-8 ovarian) was greater than 100 µM. It also gave a TGI (PC-3 prostate) greater than 100 µM, a TGI (RPMI-8226 leukemia) greater than 100 µM and a TGI (RXF 393 renal) greater than 100 µM. The TGI (SF-268 CNS) was greater than 100 µM, the TGI (SF-295 CNS) was greater than 100 µM and the TGI (SF-539 CNS) was greater than 100 µM. It also gave a TGI (SK-MEL-2 melanoma) greater than 100 µM, a TGI (SK-MEL-5 melanoma) greater than 100 µM and a TGI (SK-OV-3 ovarian) greater than 100 µM. It also gave a TGI (SNB-19 CNS) greater than 100 µM, a TGI (SNB-75 CNS) greater than 100 µM and a TGI (SR leukemia) greater than 100 µM. The TGI (SW-620 colon) was greater than 100 µM, the TGI (T-47D breast) was greater than 100 µM and the TGI (TK-10 renal) was greater than 100 µM. For the same compound, the TGI (U251 CNS) was greater than 100 µM, the TGI (UACC-257 melanoma) was greater than 100 µM and the TGI (UACC-62 melanoma) was greater than 100 µM. For the same compound, the TGI (UO-31 renal) was greater than 100 µM.
Work on `CCn1c(=O)c(Oc2ccc(F)cc2F)cc2cnc(NC3CCOCC3)nc21` yielded a GI50 (786-0 renal) greater than 25 µM, a TGI (786-0 renal) greater than 25 µM and a GI50 (A498 renal) of 6.94 µM. The TGI (A498 renal) was greater than 25 µM, the GI50 (A549 NSCLC) was greater than 25 µM and the TGI (A549 NSCLC) was greater than 25 µM. The GI50 (ACHN renal) was greater than 25 µM, the TGI (ACHN renal) was greater than 25 µM and the GI50 (BT-549 breast) was greater than 25 µM. The TGI (BT-549 breast) was greater than 25 µM, the GI50 (CAKI-1 renal) was greater than 25 µM and the TGI (CAKI-1 renal) was greater than 25 µM. For the same compound, the GI50 (CCRF-CEM leukemia) was greater than 25 µM, the TGI (CCRF-CEM leukemia) was greater than 25 µM and the GI50 (COLO 205 colon) was greater than 25 µM. The TGI (COLO 205 colon) was greater than 25 µM, the GI50 (DU-145 prostate) was greater than 25 µM and the TGI (DU-145 prostate) was greater than 25 µM. For the same compound, the GI50 (HCC-2998 colon) was greater than 25 µM, the TGI (HCC-2998 colon) was greater than 25 µM and the GI50 (HCT-116 colon) was greater than 25 µM. It also gave a TGI (HCT-116 colon) greater than 25 µM, a GI50 (HCT-15 colon) greater than 25 µM and a TGI (HCT-15 colon) greater than 25 µM. For the same compound, the GI50 (HL-60(TB) leukemia) was greater than 14.1 µM, the TGI (HL-60(TB) leukemia) was greater than 25 µM and the GI50 (HOP-62 NSCLC) was greater than 25 µM. It also gave a TGI (HOP-62 NSCLC) greater than 25 µM, a GI50 (HOP-92 NSCLC) of 3.19 µM and a TGI (HOP-92 NSCLC) greater than 25 µM. The GI50 (HS 578T breast) was greater than 16.4 µM, the TGI (HS 578T breast) was greater than 25 µM and the GI50 (HT29 colon) was greater than 25 µM. For the same compound, the TGI (HT29 colon) was greater than 25 µM, the GI50 (IGROV1 ovarian) was greater than 25 µM and the TGI (IGROV1 ovarian) was greater than 25 µM. For the same compound, the GI50 (K-562 leukemia) was greater than 25 µM, the TGI (K-562 leukemia) was greater than 25 µM and the GI50 (KM12 colon) was greater than 25 µM. The TGI (KM12 colon) was greater than 25 µM, the GI50 (LOX IMVI melanoma) was greater than 25 µM and the TGI (LOX IMVI melanoma) was greater than 25 µM. For the same compound, the GI50 (M14 melanoma) was greater than 25 µM, the TGI (M14 melanoma) was greater than 25 µM and the GI50 (MALME-3M melanoma) was greater than 25 µM. The TGI (MALME-3M melanoma) was greater than 25 µM, the GI50 (MCF7 breast) was greater than 25 µM and the TGI (MCF7 breast) was greater than 25 µM. The GI50 (MDA-MB-231 breast) was greater than 25 µM, the TGI (MDA-MB-231 breast) was greater than 25 µM and the GI50 (MDA-MB-435) was greater than 25 µM. It also gave a TGI (MDA-MB-435) greater than 25 µM, a GI50 (MOLT-4 leukemia) greater than 25 µM and a TGI (MOLT-4 leukemia) greater than 25 µM. The GI50 (NCI-H226 lung) was greater than 25 µM, the TGI (NCI-H226 lung) was greater than 25 µM and the GI50 (NCI-H23 lung) was greater than 25 µM. The TGI (NCI-H23 lung) was greater than 25 µM, the GI50 (NCI-H460 lung) was greater than 25 µM and the TGI (NCI-H460 lung) was greater than 25 µM. It also gave a GI50 (NCI-H522 lung) greater than 25 µM, a TGI (NCI-H522 lung) greater than 25 µM and a GI50 (NCI/ADR-RES ovarian) greater than 25 µM. It also gave a TGI (NCI/ADR-RES ovarian) greater than 25 µM, a GI50 (OVCAR-3 ovarian) greater than 25 µM and a TGI (OVCAR-3 ovarian) greater than 25 µM. It also gave a GI50 (OVCAR-4 ovarian) greater than 25 µM, a TGI (OVCAR-4 ovarian) greater than 25 µM and a GI50 (OVCAR-5 ovarian) greater than 25 µM. For the same compound, the TGI (OVCAR-5 ovarian) was greater than 25 µM, the GI50 (OVCAR-8 ovarian) was greater than 25 µM and the TGI (OVCAR-8 ovarian) was greater than 25 µM. For the same compound, the GI50 (PC-3 prostate) was greater than 25 µM, the TGI (PC-3 prostate) was greater than 25 µM and the GI50 (RPMI-8226 leukemia) was greater than 25 µM. It also gave a TGI (RPMI-8226 leukemia) greater than 25 µM, a GI50 (RXF 393 renal) greater than 18.7 µM and a TGI (RXF 393 renal) greater than 25 µM. For the same compound, the GI50 (SF-268 CNS) was greater than 25 µM, the TGI (SF-268 CNS) was greater than 25 µM and the GI50 (SF-295 CNS) was greater than 25 µM. For the same compound, the TGI (SF-295 CNS) was greater than 25 µM, the GI50 (SF-539 CNS) was greater than 25 µM and the TGI (SF-539 CNS) was greater than 25 µM. For the same compound, the GI50 (SK-MEL-2 melanoma) was greater than 25 µM, the TGI (SK-MEL-2 melanoma) was greater than 25 µM and the GI50 (SK-MEL-28 melanoma) was greater than 25 µM. For the same compound, the TGI (SK-MEL-28 melanoma) was greater than 25 µM, the GI50 (SK-MEL-5 melanoma) was greater than 25 µM and the TGI (SK-MEL-5 melanoma) was greater than 25 µM. For the same compound, the GI50 (SK-OV-3 ovarian) was greater than 25 µM, the TGI (SK-OV-3 ovarian) was greater than 25 µM and the GI50 (SN12C renal) was greater than 25 µM. The TGI (SN12C renal) was greater than 25 µM, the GI50 (SNB-19 CNS) was greater than 25 µM and the TGI (SNB-19 CNS) was greater than 25 µM. For the same compound, the GI50 (SNB-75 CNS) was greater than 25 µM, the TGI (SNB-75 CNS) was greater than 25 µM and the GI50 (SR leukemia) was greater than 25 µM. For the same compound, the TGI (SR leukemia) was greater than 25 µM, the GI50 (SW-620 colon) was greater than 25 µM and the TGI (SW-620 colon) was greater than 25 µM. It also gave a GI50 (T-47D breast) greater than 25 µM, a TGI (T-47D breast) greater than 25 µM and a GI50 (TK-10 renal) of 19.7 µM. It also gave a TGI (TK-10 renal) greater than 25 µM, a GI50 (U251 CNS) greater than 25 µM and a TGI (U251 CNS) greater than 25 µM. It also gave a GI50 (UACC-257 melanoma) greater than 25 µM, a TGI (UACC-257 melanoma) greater than 25 µM and a GI50 (UACC-62 melanoma) greater than 25 µM. For the same compound, the TGI (UACC-62 melanoma) was greater than 25 µM, the GI50 (UO-31 renal) was 5.47 µM and the TGI (UO-31 renal) was greater than 15.2 µM.
